The source of these data is patent US8173392B2, “In vivo incorporation of unnatural amino acids” (The Scripps Research Institute, priority 2001, dated 2012).

The test system of data set [1] is DH10B harboring pBLAM-YQRS and pACYsupA38. Nature of the data set: cell toxicity screen of unnatural amino acids in glycerol minimal media. Type of data set: cell-based, E. coli. To be noted: concentration used as lethal allele at IC50 level.
Excerpt: For example, a variety of unnatural amino acids are optionally screened in minimal media for toxicity to cells. Toxicities are typically sorted into five groups: (1) no toxicity, in which no significant change in doubling times occurs; (2) low toxicity, in which doubling times increase by less than about 10%; (3) moderate toxicity, in which doubling times increase by about 10% to about 50%; (4) high toxicity, in which doubling times increase by about 50% to about 100%; and (5) extreme toxicity, in which doubling times increase by more than about 100%. […] The toxicity of the amino acids scoring as highly or extremely toxic is typically measured as a function of their concentration to obtain IC50 values.
A variety of unnatural amino acids and α-hydroxy acids of interest, obtained commercially or by short syntheses from available starting materials (I. Shin, B. Herberich, A. Varvak, T. Magliery, P. Schultz, unpublished results, were screened for cell toxicity). […] Each amino acid wasscreened at 1 mM in glycerol minimal media for toxicity to cells, e.g., to DH10B harboring pBLAM-YQRS and pACYsupA38.
The toxicity of amino acids scoring as highly or extremely toxic is typically measured as a function of their concentration to obtain IC50 values. […]
Data set [2] relates to glutamine uptake pathway of DH10B. Nature of the data set: complementation of toxic glutamine alleles S27 and S47 (cellular uptake). It is filed as cell-based, E. coli. The note with it: 2 mM, complementation of S27 (100 μM) and S47 (30 μM). The source says:
To identify possible uptake pathways for toxic amino acids, toxicity assays are optionally repeated at IC50 levels, e.g., in media supplemented with an excess of a structurally similar natural amino acid. For toxic amino acids, the presence of excess natural amino acid typically rescues the ability of the cells to grow in the presence of the toxin, presumably because the natural amino acid effectively outcompetes the toxin for either cellular uptake or for binding to essential enzymes. In these cases, the toxic amino acid is optionally assigned a possible uptake pathway and labeled a “lethal allele” whose complementation is required for cell survival. These lethal alleles are extremely useful for assaying the ability of cells to uptake nontoxic unnatural amino acids. […] A lack of complementation is inconclusive. For example studies and conclusions see the examples provided below.
For toxic amino acids, the presence of excess natural amino acid rescued the ability of the cells to grow in the presence of the toxin, presumably because the natural amino acid effectively outcompeted the toxin for either cellular uptake or for binding to essential enzymes. […]
Using this method, the ability of 22 glutamine and glutamic acid analogs to be taken up by DH10B was evaluated. […]

In data set [1], `NNC(=O)CCC(N)C(=O)O` (centres unmarked) [S47] registered an IC50 of 30 µM. Also, the “cellular uptake, possibly via the glutamine uptake pathway” value in data set [2] is “uptaken by cells”.
